17 compounds from US12599672B2, “KRAS proteolysis targeting chimeras” (PAQ Therapeutics Inc., priority 2023, dated 2026) can be followed below.

For one assay, the target named is T1, KRAS G12D (Homo sapiens, UniProt P01116, G12D).
T1 construct: AsPc-1-KRAS (G12D)-HiBit-KI cell (Pharmaron); host or cells: AsPc-1-KRAS (G12D)-HiBit-KI cells (HiBiT knock-in at the endogenous KRAS locus)
In words: KRAS G12D HiBit assay. In kind it is cell-based. The note with it: AsPc-1-KRAS (G12D)-HiBit-KI cell, compound treatment for 24 hours; for DC50: absolute DC50. In short, it runs like this:
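HiBiT luminescence, detected by adding lytic buffer, substrate and LgBiT protein, served as the KRAS G12D read-out. Compounds, serially diluted 3-fold over 10 points from 0.3 mM DMSO stock, were on cells for 24 h; percent inhibition normalized to cells given 0.1% DMSO only.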
(With HiBiT, luminescence reflects the tagged protein that the partner subunit can reach.)

A further assay has as its target T2, KRAS G12V (Homo sapiens, UniProt P01116, G12V).
T2 construct: SW620-KRAS (G12V)-HiBit-KI cell (Pharmaron); host or cells: SW620-KRAS (G12V)-HiBit-KI cells (HiBiT knock-in at the endogenous KRAS locus)
In words: KRAS G12V HiBit assay. The class given is cell-based. Conditions: SW620-KRAS (G12V)-HiBit-KI cells, compound treatment for 24 hours, class symbols. In short, it runs like this: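 Luminescence from lytic Nano-Glo HiBiT detection with LgBiT read KRAS G12V levels after 24 h compound exposure. Dilutions were 10-point, 3-fold, from a 0.3 mM DMSO stock. Degradation activity was normalised to cells given 0.1% DMSO alone.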

Setting [1] is: numeric bounds given in place of class symbols.

Each structure is given as a SMILES string.

T2 sequence (P01116 1-188 isoform P01116-2 G12V): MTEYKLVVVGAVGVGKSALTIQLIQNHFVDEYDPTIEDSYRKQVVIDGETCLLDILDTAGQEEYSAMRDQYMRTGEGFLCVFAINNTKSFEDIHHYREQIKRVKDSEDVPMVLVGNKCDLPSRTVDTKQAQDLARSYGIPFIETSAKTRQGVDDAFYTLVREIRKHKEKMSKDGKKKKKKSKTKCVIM
T1 sequence (P01116 1-188 isoform P01116-2 G12D): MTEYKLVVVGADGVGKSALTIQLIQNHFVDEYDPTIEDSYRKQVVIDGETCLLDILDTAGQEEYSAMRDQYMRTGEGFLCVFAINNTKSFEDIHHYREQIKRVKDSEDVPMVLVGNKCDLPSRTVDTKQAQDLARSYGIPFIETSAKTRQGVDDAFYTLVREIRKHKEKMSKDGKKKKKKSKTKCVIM

Consider `Cn1c(=O)n(C2CCC(=O)NC2=O)c2ccc(C3CCN(C4CC5(CCN(C(=O)OC[C@@H]6CC[C@]7(COc8nc(N9CCC[C@@](C)(O)C9)c9cnc(-c%10cc(O)cc%11cccc(Cl)c%10%11)c(F)c9n8)CCCN67)CC5)C4)CC3)cc21` (stereo partly drawn) [Compound 338, ((3S,7aS)-7a-(((7-(8-chloro-3-hydroxynaphthalen-1-yl)-8-fluoro-4-((R)-3-hydroxy-3-methylpiperidin-1-yl)pyrido[4,3-d]pyrimidin-2-yl)oxy)methyl)hexahydro-1H-pyrrolizin-3-yl)methyl 2-(4-(1-(2,6-dioxopiperidin-3-yl)-3-methyl-2-oxo-2,3-dihydro-1H-benzo[d]imidazol-5-yl)piperidin-1-yl)-7-azaspiro[3.5]nonane-7-carboxylate], for which the DC50 is below 100 nM on KRAS G12D (class symbols) and below 10 nM at KRAS G12V.

For the compound `CCc1c(F)ccc2cc(O)cc(-c3ncc4c(N5CCC[C@@](C)(O)C5)nc(OC[C@@]56CCCN5[C@H](COC(=O)N5CC7CC(C5)C7CN5CCC(c7ccc8c(c7)n(C)c(=O)n8C7CCC(=O)NC7=O)CC5)CC6)nc4c3F)c12` (stereo partly drawn) [Compound 400, ((3S,7aS)-7a-(((7-(8-ethyl-7-fluoro-3-hydroxynaphthalen-1-yl)-8-fluoro-4-((R)-3-hydroxy-3-methylpiperidin-1-yl)pyrido[4,3-d]pyrimidin-2-yl)oxy)methyl)hexahydro-1H-pyrrolizin-3-yl)methyl 6-((4-(1-(2,6-dioxopiperidin-3-yl)-3-methyl-2-oxo-2,3-dihydro-1H-benzo[d]imidazol-5-yl)piperidin-1-yl)methyl)-3-azabicyclo[3.1.1]heptane-3-carboxylate], the DC50 on KRAS G12D (class symbols) is below 100 nM; at KRAS G12V, below 10 nM.

In the case of `C#Cc1c(F)ccc2cccc(-c3ncc4c(N5CCC[C@@](C)(O)C5)nc(OC[C@@]56CCCN5[C@H](COC(=O)N5CCC(C7CCN(c8ccc9c(c8)n(C)c(=O)n9C8CCC(=O)NC8=O)CC7)CC5)CC6)nc4c3F)c12` (some centres unmarked) [Compound 152], the DC50 on KRAS G12D (setting [1]) and on KRAS G12V was above 100 nM in each case.

For `CCc1c(F)ccc2cccc(-c3ncc4c(N5CCC[C@@](C)(O)C5)nc(OC[C@@]56CCCN5[C@H](COC(=O)NCCOCCOCCOc5ccc7c(c5)n(C)c(=O)n7C5CCC(=O)NC5=O)CC6)nc4c3F)c12` (stereo partly drawn) [Compound 104, ((3S,7aS)-7a-(((7-(8-ethyl-7-fluoronaphthalen-1-yl)-8-fluoro-4-((R)-3-hydroxy-3-methylpiperidin-1-yl)pyrido[4,3-d]pyrimidin-2-yl)oxy)methyl)hexahydro-1H-pyrrolizin-3-yl)methyl (2-(2-(2-((1-(2,6-dioxopiperidin-3-yl)-3-methyl-2-oxo-2,3-dihydro-1H-benzo[d]imidazol-5-yl)oxy)ethoxy)ethoxy)ethyl) carbamate], on KRAS G12D (class symbols), the DC50 is above 300 nM and the Dmax was in the range of 15 to 50%. The same compound came in with a DC50 at KRAS G12V above 100 nM.

Turning to `C#Cc1c(F)ccc2cc(O)cc(-c3ncc4c(N5CCC[C@@](C)(O)C5)nc(OCC5(CN6CCC7(CC6)CN(c6ccc8c(c6)n(C)c(=O)n8C6CCC(=O)NC6=O)C7)CC5)nc4c3F)c12` (some centres unmarked) [Compound 33], the figures for the DC50 at KRAS G12D (class symbols) and on KRAS G12V were above 300 nM and above 100 nM, respectively.

For `CCc1c(F)ccc2cc(O)cc(-c3ncc4c(N5CCC[C@@](C)(O)C5)nc(OC[C@@]56CCCN5[C@H](CNC(=O)c5ccc(CN7CCC(c8ccc9c(c8)n(C)c(=O)n9C8CCC(=O)NC8=O)CC7)cc5F)CC6)nc4c3F)c12` (stereo partly drawn) [Compound 494, 4-((4-(1-(2,6-dioxopiperidin-3-yl)-3-methyl-2-oxo-2,3-dihydro-1H-benzo[d]imidazol-5-yl)piperidin-1-yl)methyl)-N-(((3S,7aS)-7a-(((7-(8-ethyl-7-fluoro-3-hydroxynaphthalen-1-yl)-8-fluoro-4-((R)-3-hydroxy-3-methylpiperidin-1-yl)pyrido[4,3-d]pyrimidin-2-yl)oxy)methyl)hexahydro-1H-pyrrolizin-3-yl)methyl)-2-fluorobenzamide], the DC50 at KRAS G12D (class symbols) was below 100 nM; at KRAS G12V, 10 to 100 nM.

As for `C#Cc1c(F)ccc2cc(O)cc(-c3ncc4c(N5CCCCCC5)nc(OCC5(CN6CCN(CC7CCN(c8ccc9c(c8)n(C)c(=O)n9C8CCC(=O)NC8=O)CC7)CC6)CC5)nc4c3F)c12` (centres unmarked) [Compound 16], the results for the DC50 at KRAS G12D (class symbols) and at KRAS G12V were below 100 nM and above 100 nM, respectively. The Dmax at KRAS G12D (class symbols) was above 50%.

Turning to `C#Cc1c(F)ccc2cccc(-c3ncc4c(N5CCC[C@@](C)(O)C5)nc(OCC5(CN6CCN(C7CCN(c8ccc9c(c8)n(C)c(=O)n9C8CCC(=O)NC8=O)CC7)CC6)CC5)nc4c3F)c12` (some centres unmarked) [Compound 53], the figures for the DC50 on KRAS G12D (class symbols) and at KRAS G12V were above 300 nM and above 100 nM, respectively.

As for `C#Cc1c(F)ccc2cc(O)cc(-c3ncc4c(N5CCC[C@@](C)(O)C5)nc(OCC5(CN6CCC(CN7CCN(c8cccc9c8n(C)c(=O)n9C8CCC(=O)NC8=O)CC7)CC6)CC5)nc4c3F)c12` (some centres unmarked) [Compound 72], the DC50 was below 100 nM on KRAS G12D (class symbols) and below 10 nM at KRAS G12V.

For `CCc1c(F)ccc2cc(O)cc(-c3ncc4c(N5CCC[C@@H]5CO)nc(OC[C@@]56CCCN5[C@H](COC(=O)N5CCC7(CC5)CC(N5CCC(c8ccc9c(c8)n(C)c(=O)n9C8CCC(=O)NC8=O)CC5)C7)CC6)nc4c3F)c12` (stereo partly drawn) [Compound 352, ((3S,7aS)-7a-(((7-(8-ethyl-7-fluoro-3-hydroxynaphthalen-1-yl)-8-fluoro-4-((R)-2-(hydroxymethyl)pyrrolidin-1-yl)pyrido[4,3-d]pyrimidin-2-yl)oxy)methyl)hexahydro-1H-pyrrolizin-3-yl)methyl 2-(4-(1-(2,6-dioxopiperidin-3-yl)-3-methyl-2-oxo-2,3-dihydro-1H-benzo[d]imidazol-5-yl)piperidin-1-yl)-7-azaspiro[3.5]nonane-7-carboxylate], the figures for the DC50 at KRAS G12D (class symbols) and at KRAS G12V were below 100 nM and below 10 nM, respectively.

For the compound `CCc1c(F)ccc2cc(O)cc(-c3ncc4c(N5CCC[C@@](C)(O)C5)nc(OC[C@@]56CCCN5[C@H](COC(=O)c5ccc(N7CCC(c8ccc9c(c8)n(C)c(=O)n9C8CCC(=O)NC8=O)CC7)cc5)CC6)nc4c3F)c12` (stereo partly drawn) [Compound 495, ((3S,7aS)-7a-(((7-(8-ethyl-7-fluoro-3-hydroxynaphthalen-1-yl)-8-fluoro-4-((R)-3-hydroxy-3-methylpiperidin-1-yl)pyrido[4,3-d]pyrimidin-2-yl)oxy)methyl)hexahydro-1H-pyrrolizin-3-yl)methyl 4-(4-(1-(2,6-dioxopiperidin-3-yl)-3-methyl-2-oxo-2,3-dihydro-1H-benzo[d]imidazol-5-yl)piperidin-1-yl)benzoate], the DC50 on KRAS G12D (class symbols) is below 100 nM; on KRAS G12V it was 10 to 100 nM.

On to `C#Cc1c(F)ccc2cccc(-c3ncc4c(N5CCC[C@@](C)(O)C5)nc(OC[C@@]56CCCN5[C@H](COC(=O)N5CCC(CN7CCC(c8ccc9c(c8)n(C)c(=O)n9C8CCC(=O)NC8=O)CC7)CC5)CC6)nc4c3F)c12` (stereo partly drawn) [Compound 3, [(3S,8S)-8-[[7-(8-Ethynyl-7-fluoro-1-naphthyl)-8-fluoro-4-[(3R)-3-hydroxy-3-methyl-1-piperidyl]pyrido[4,3-d]pyrimidin-2-yl]oxymethyl]-1,2,3,5,6,7-hexahydropyrrolizin-3-yl]methyl 4-[[4-[1-(2,6-dioxo-3-piperidyl)-3-methyl-2-oxo-benzimidazol-5-yl]-1-piperidyl]methyl]piperidine-1-carboxylate], for which, at KRAS G12D (class symbols), the DC50 was below 100 nM and the Dmax is above 50%. This compound also had a DC50 on KRAS G12V above 100 nM.

For `C#Cc1c(F)ccc2cc(O)cc(-c3ncc4c(N5CCC[C@@](C)(O)C5)nc(OCC5(CN6CCN(Cc7cccc8c7n(C)c(=O)n8C7CCC(=O)NC7=O)CC6)CC5)nc4c3F)c12` (some centres unmarked) [Compound 63], the results for the DC50 on KRAS G12D (class symbols) and on KRAS G12V were above 300 nM and above 100 nM, respectively.

As to `C#Cc1c(F)ccc2cccc(-c3ncc4c(N5CCC[C@@](C)(O)C5)nc(OCC5(CN6CCC(CN7CCN(c8ccc9c(c8)C(=O)N(C8CCC(=O)NC8=O)C9=O)CC7)CC6)CC5)nc4c3F)c12` (some centres unmarked) [Compound 49], the DC50 at KRAS G12D (setting [1]) was above 160 nM; on KRAS G12V, above 100 nM.

Turning to `C#Cc1c(F)ccc2cc(O)cc(-c3ncc4c(N5CCOCC5)nc(OCC5(CN6CCN(CC7CCN(c8ccc9c(c8)n(C)c(=O)n9C8CCC(=O)NC8=O)CC7)CC6)CC5)nc4c3F)c12` (centres unmarked) [Compound 18, 3-[5-[4-[[4-[[1-[[7-(8-Ethynyl-7-fluoro-3-hydroxy-1-naphthyl)-8-fluoro-4-morpholino-pyrido[4,3-d]pyrimidin-2-yl]oxymethyl]cyclopropyl]methyl]piperazin-1-yl]methyl]-1-piperidyl]-3-methyl-2-oxo-benzimidazol-1-yl]piperidine-2,6-dione], the DC50 on KRAS G12D (class symbols) is above 300 nM; on KRAS G12V, above 100 nM. The compound also had a Dmax on KRAS G12D (class symbols) of 15 to 50%.

`C#Cc1c(F)ccc2cc(O)cc(-c3ncc4c(N5CCC[C@@](C)(O)C5)nc(OC[C@@]56CCCN5[C@H](COC(=O)N5CCC(N7CCC(c8ccc9c(c8)n(C)c(=O)n9C8CCC(=O)NC8=O)CC7)CC5)CC6)nc4c3F)c12` (some centres unmarked) [Compound 129]: the results for the DC50 on KRAS G12D (class symbols) and on KRAS G12V were above 300 nM and above 100 nM, respectively.

As to `C#Cc1c(F)ccc2cccc(-c3ncc4c(N5CCC[C@@](C)(O)C5)nc(OC[C@@]56CCCN5[C@H](COC(=O)N5CCC(N7CCC(c8cccc9c8n(C)c(=O)n9C8CCC(=O)NC8=O)CC7)CC5)CC6)nc4c3F)c12` (some centres unmarked) [Compound 147], the DC50 at KRAS G12D (setting [1]) and on KRAS G12V was above 100 nM throughout.
